{"source": "patent US10738028B2", "about": "“Spiro three-membered ring, spiro five-membered ring peptide deformylase inhibitor and use thereof in antibacteria and anti-tumor” (priority 2016, dated 2020)", "assay_type_in_all_cases": "cell-based", "key": {"[1]": {"test_system": "Enterococcus faecalis (EFA)", "assay": "MIC, two-fold agar dilution (CLSI), clinical isolates", "in_short": "(§1)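 Susceptibility was tested using CLSI two-fold agar dilution against the strains examined.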"}, "[2]": {"test_system": "Enterococcus faecium (EFM)", "assay": "MIC, two-fold agar dilution (CLSI), clinical isolates", "in_short": "as §1"}, "[3]": {"test_system": "Escherichia coli (including ESBLs, non-ESBLs)", "assay": "MIC, two-fold agar dilution (CLSI), clinical isolates", "in_short": "as §1"}, "[4]": {"test_system": "Moraxella catarrhalis (BCA)", "assay": "MIC, two-fold agar dilution (CLSI), clinical isolates", "in_short": "as §1"}, "[5]": {"test_system": "Streptococcus pneoumoniae (SPN)", "assay": "MIC, two-fold agar dilution (CLSI), clinical isolates", "in_short": "as §1"}, "[6]": {"test_system": "methicillin-resistant Staphylococcus aureus (MRSA)", "assay": "MIC, two-fold agar dilution (CLSI), clinical isolates", "in_short": "as §1"}, "[7]": {"test_system": "methicillin-resistant Staphylococcus epidermidis (MRSE)", "assay": "MIC, two-fold agar dilution (CLSI), clinical isolates", "in_short": "as §1"}, "[8]": {"test_system": "methicillin-sensitive Staphylococcus aureus (MSSA)", "assay": "MIC, two-fold agar dilution (CLSI), clinical isolates", "in_short": "as §1"}, "[9]": {"test_system": "methicillin-sensitive Staphylococcus epidermidis (MSSE)", "assay": "MIC, two-fold agar dilution (CLSI), clinical isolates", "in_short": "as §1"}, "[10]": {"test_system": "HCT-116 colorectal cancer cell line", "assay": "CCK-8 proliferation inhibition", "settings": "Homo sapiens, HCT-116, 72 h, concentration of 30 μM; 72 hours; CCK-8; read-out: HCT116 inhibition rate/%", "in_short": "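HCT-116 cells, seeded at 2000 cells/well in McCoy's 5A with 10% newborn bovine serum, were cultured overnight at 37° C., 5% CO2, then exposed to compound dilutions in medium for 72 hours. Viability was read with 1:10 diluted CCK-8; controls received 1‰ DMSO.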"}}}
{"smiles": "CCCC[C@H](CC(=O)NO)C(=O)N1CC2(CC2)C[C@H]1C(=O)NC1CC1", "note": "[Example 50, (S)—N-cyclopropyl-5-((R)-2-(2-(hydroxyamino)-2-oxoethyl)hexanoyl)-5-azaspiro[2.4]heptane-6-carboxamide]", "values": [{"measurement": "Anti-bacterial activity (MIC), strain EFA 15-1", "setting": "[1]; clinical isolate EFA 15-1", "value": "> 32", "unit": "µg/mL"}, {"measurement": "Anti-bacterial activity (MIC), strain EFA 15-2", "setting": "[1]; clinical isolate EFA 15-2", "value": "> 32", "unit": "µg/mL"}, {"measurement": "Anti-bacterial activity (MIC), strain EFA 15-3", "setting": "[1]; clinical isolate EFA 15-3", "value": "> 32", "unit": "µg/mL"}, {"measurement": "Anti-bacterial activity (MIC), strain EFA 15-4", "setting": "[1]; clinical isolate EFA 15-4", "value": "> 32", "unit": "µg/mL"}, {"measurement": "Anti-bacterial activity (MIC), strain EFA 15-5", "setting": "[1]; clinical isolate EFA 15-5", "value": "> 32", "unit": "µg/mL"}, {"measurement": "Anti-bacterial activity (MIC), strain EFA 15-6", "setting": "[1]; clinical isolate EFA 15-6", "value": "> 32", "unit": "µg/mL"}, {"measurement": "Anti-bacterial activity (MIC), strain EFA 15-9", "setting": "[1]; clinical isolate EFA 15-9", "value": "> 32", "unit": "µg/mL"}, {"measurement": "Anti-bacterial activity (MIC), strain EFM 15-1", "setting": "[2]; clinical isolate EFM 15-1", "value": "> 32", "unit": "µg/mL"}, {"measurement": "Anti-bacterial activity (MIC), strain EFM 15-2", "setting": "[2]; clinical isolate EFM 15-2", "value": "> 32", "unit": "µg/mL"}, {"measurement": "Anti-bacterial activity (MIC), strain EFM 15-3", "setting": "[2]; clinical isolate EFM 15-3", "value": "> 32", "unit": "µg/mL"}, {"measurement": "Anti-bacterial activity (MIC), strain EFM 15-4", "setting": "[2]; clinical isolate EFM 15-4", "value": "> 32", "unit": "µg/mL"}, {"measurement": "Anti-bacterial activity (MIC), strain EFM 15-5", "setting": "[2]; clinical isolate EFM 15-5", "value": "> 32", "unit": "µg/mL"}, {"measurement": "Anti-bacterial activity (MIC), strain EFM 15-6", "setting": "[2]; clinical isolate EFM 15-6", "value": "> 32", "unit": "µg/mL"}, {"measurement": "Anti-bacterial activity (MIC), strain ECO+ 15-1", "setting": "[3]; clinical isolate ECO+ 15-1", "value": "> 32", "unit": "µg/mL"}, {"measurement": "Anti-bacterial activity (MIC), strain ECO+ 15-2", "setting": "[3]; clinical isolate ECO+ 15-2", "value": "> 32", "unit": "µg/mL"}, {"measurement": "Anti-bacterial activity (MIC), strain ECO+ 15-3", "setting": "[3]; clinical isolate ECO+ 15-3", "value": "> 32", "unit": "µg/mL"}, {"measurement": "Anti-bacterial activity (MIC), strain ECO+ 15-4", "setting": "[3]; clinical isolate ECO+ 15-4", "value": "> 32", "unit": "µg/mL"}, {"measurement": "Anti-bacterial activity (MIC), strain ECO− 15-1", "setting": "[3]; clinical isolate ECO− 15-1", "value": "> 32", "unit": "µg/mL"}, {"measurement": "Anti-bacterial activity (MIC), strain ECO− 15-2", "setting": "[3]; clinical isolate ECO− 15-2", "value": "> 32", "unit": "µg/mL"}, {"measurement": "Anti-bacterial activity (MIC), strain ECO− 15-3", "setting": "[3]; clinical isolate ECO− 15-3", "value": "> 32", "unit": "µg/mL"}, {"measurement": "Anti-bacterial activity (MIC), strain ECO− 15-4", "setting": "[3]; clinical isolate ECO− 15-4", "value": "> 32", "unit": "µg/mL"}, {"measurement": "Anti-bacterial activity (MIC), strain BCA 14-1", "setting": "[4]; clinical isolate BCA 14-1", "value": "> 32", "unit": "µg/mL"}, {"measurement": "Anti-bacterial activity (MIC), strain BCA 14-4", "setting": "[4]; clinical isolate BCA 14-4", "value": "> 32", "unit": "µg/mL"}, {"measurement": "Anti-bacterial activity (MIC), strain BCA 14-5", "setting": "[4]; clinical isolate BCA 14-5", "value": "> 32", "unit": "µg/mL"}, {"measurement": "Anti-bacterial activity (MIC), strain BCA 14-6", "setting": "[4]; clinical isolate BCA 14-6", "value": "> 32", "unit": "µg/mL"}, {"measurement": "Anti-bacterial activity (MIC), strain BCA 14-7", "setting": "[4]; clinical isolate BCA 14-7", "value": "> 32", "unit": "µg/mL"}, {"measurement": "Anti-bacterial activity (MIC), strain BCA 14-8", "setting": "[4]; clinical isolate BCA 14-8", "value": "> 32", "unit": "µg/mL"}, {"measurement": "Anti-bacterial activity (MIC), strain BCA 14-10", "setting": "[4]; clinical isolate BCA 14-10", "value": "> 32", "unit": "µg/mL"}, {"measurement": "Anti-bacterial activity (MIC), strain SPN 16-2", "setting": "[5]; clinical isolate SPN 16-2", "value": "> 32", "unit": "µg/mL"}, {"measurement": "Anti-bacterial activity (MIC), strain SPN 16-4", "setting": "[5]; clinical isolate SPN 16-4", "value": "> 32", "unit": "µg/mL"}, {"measurement": "Anti-bacterial activity (MIC), strain MRSA 15-1", "setting": "[6]; clinical isolate MRSA 15-1", "value": "> 23", "unit": "µg/mL"}, {"measurement": "Anti-bacterial activity (MIC), strain MRSA 15-2", "setting": "[6]; clinical isolate MRSA 15-2", "value": "> 32", "unit": "µg/mL"}, {"measurement": "Anti-bacterial activity (MIC), strain MRSA 15-3", "setting": "[6]; clinical isolate MRSA 15-3", "value": "> 32", "unit": "µg/mL"}, {"measurement": "Anti-bacterial activity (MIC), strain MRSA 15-4", "setting": "[6]; clinical isolate MRSA 15-4", "value": "> 32", "unit": "µg/mL"}, {"measurement": "Anti-bacterial activity (MIC), strain MRSE 15-1", "setting": "[7]; clinical isolate MRSE 15-1", "value": "> 32", "unit": "µg/mL"}, {"measurement": "Anti-bacterial activity (MIC), strain MRSE 15-2", "setting": "[7]; clinical isolate MRSE 15-2", "value": "> 32", "unit": "µg/mL"}, {"measurement": "Anti-bacterial activity (MIC), strain MRSE 15-3", "setting": "[7]; clinical isolate MRSE 15-3", "value": "> 32", "unit": "µg/mL"}, {"measurement": "Anti-bacterial activity (MIC), strain MRSE 15-7", "setting": "[7]; clinical isolate MRSE 15-7", "value": "> 32", "unit": "µg/mL"}, {"measurement": "Anti-bacterial activity (MIC), strain MSSA 15-3", "setting": "[8]; clinical isolate MSSA 15-3", "value": "> 32", "unit": "µg/mL"}, {"measurement": "Anti-bacterial activity (MIC), strain MSSA 15-4", "setting": "[8]; clinical isolate MSSA 15-4", "value": "> 32", "unit": "µg/mL"}, {"measurement": "Anti-bacterial activity (MIC), strain MSSA 15-5", "setting": "[8]; clinical isolate MSSA 15-5", "value": "> 32", "unit": "µg/mL"}, {"measurement": "Anti-bacterial activity (MIC), strain MSSA 15-6", "setting": "[8]; clinical isolate MSSA 15-6", "value": "> 32", "unit": "µg/mL"}, {"measurement": "Anti-bacterial activity (MIC), strain MSSE 15-3", "setting": "[9]; clinical isolate MSSE 15-3", "value": "> 32", "unit": "µg/mL"}, {"measurement": "Anti-bacterial activity (MIC), strain MSSE 15-4", "setting": "[9]; clinical isolate MSSE 15-4", "value": "> 32", "unit": "µg/mL"}, {"measurement": "Anti-bacterial activity (MIC), strain MSSE 15-5", "setting": "[9]; clinical isolate MSSE 15-5", "value": "> 32", "unit": "µg/mL"}, {"measurement": "Anti-bacterial activity (MIC), strain MSSE 15-6", "setting": "[9]; clinical isolate MSSE 15-6", "value": "> 32", "unit": "µg/mL"}, {"measurement": "inhibition at 30 µM", "setting": "[10]", "value": -11, "unit": "%"}]}
